Patent US20120214862A1, “MODULATION OF FACTOR 7 EXPRESSION” (ISIS Pharmaceuticals, Inc., priority 2009, published 2012)
In the oligonucleotide strings, read from the 5' end, every base follows the letter of its sugar. An asterisk marks phosphorothioate; unmarked linkages are phosphodiester. Other units and linkages are bracketed, terminal groups are in braces. A string of capitals states the bases alone. e = 2'-O-(2-methoxyethyl) (MOE); [5mC] = 5-methylcytosine; d = 2'-deoxy (DNA)

How the values were obtained:
human Factor 7 mRNA [1] = test: Antisense inhibition of human Factor 7 mRNA in HepB3 cells, lipofectin, 50 nM, real-time RT-PCR; assay type: cell-based; details: HepB3 cells; for % Inhibition (human Factor 7 mRNA): Example 1, 50 nM, ~24 h, relative to untreated control cells
Summary of the method: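 Percent inhibition of Factor 7 mRNA, relative to untreated control, comes from real-time RT-PCR with RIBOGREEN normalization, using primer probe set RTS 2927 in some runs. RNA was taken roughly 24 h after lipofectin delivery of 50 nM oligonucleotide into HepB3 cells.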

human Factor 7 mRNA [2] = test: Dose-dependent antisense inhibition of human Factor 7 in HepB3 cells, transfection with electroporation; assay type: cell-based
Summary of the method: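 HepB3 cells, 20,000/well, electroporated with gapmers at 3.125–100 μM; about 16 h treatment. Factor 7 mRNA by qRT-PCR with primer probe set RTS 2927, normalized to RIBOGREEN total RNA; percent inhibition versus untreated cells.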

[3] = lipofectin, 50 nM antisense oligonucleotide, approximately 24 hours, primer probe set RTS 2927, relative to untreated control
[4] = 3.125 μM, 16 hours (Example 7, Table 15)
[5] = 3.125 μM, 16 hours (Example 8, Table 16)
[6] = 6.25 μM, 16 hours (Example 7, Table 15)
[7] = 6.25 μM, 16 hours (Example 8, Table 16)
[8] = 12.5 μM, 16 hours (Example 7, Table 15)
[9] = 12.5 μM, 16 hours (Example 8, Table 16)
[10] = 25 μM, 16 hours (Example 7, Table 15)
[11] = 25 μM, 16 hours (Example 8, Table 16)
[12] = 50 μM, 16 hours (Example 7, Table 15)
[13] = 50 μM, 16 hours (Example 8, Table 16)
[14] = 100 μM, 16 hours (Example 7, Table 15)
[15] = 100 μM, 16 hours (Example 8, Table 16)

Row | Substance | % Inhibition (human Factor 7 mRNA) (human Factor 7 mRNA [1]; lipofectin) [%] | % Inhibition of human Factor 7 mRNA levels (human Factor 7 mRNA [1]; [3]) [%] | % Inhibition of human Factor 7 mRNA levels (human Factor 7 mRNA [1]; gapmers targeted to nucleobases 15188 to 15211 of SEQ ID NO: 1 (Table 13)) [%] | percent inhibition of Factor 7 mRNA, relative to untreated control cells (human Factor 7 mRNA [2]; [4]) [%] | percent inhibition of Factor 7 mRNA, relative to untreated control cells (human Factor 7 mRNA [2]; [5]) [%] | percent inhibition of Factor 7 mRNA, relative to untreated control cells (human Factor 7 mRNA [2]; [6]) [%] | percent inhibition of Factor 7 mRNA, relative to untreated control cells (human Factor 7 mRNA [2]; [7]) [%] | percent inhibition of Factor 7 mRNA, relative to untreated control cells (human Factor 7 mRNA [2]; [8]) [%] | percent inhibition of Factor 7 mRNA, relative to untreated control cells (human Factor 7 mRNA [2]; [9]) [%] | percent inhibition of Factor 7 mRNA, relative to untreated control cells (human Factor 7 mRNA [2]; [10]) [%] | percent inhibition of Factor 7 mRNA, relative to untreated control cells (human Factor 7 mRNA [2]; [11]) [%] | percent inhibition of Factor 7 mRNA, relative to untreated control cells (human Factor 7 mRNA [2]; [12]) [%] | percent inhibition of Factor 7 mRNA, relative to untreated control cells (human Factor 7 mRNA [2]; [13]) [%] | percent inhibition of Factor 7 mRNA, relative to untreated control cells (human Factor 7 mRNA [2]; [14]) [%] | percent inhibition of Factor 7 mRNA, relative to untreated control cells (human Factor 7 mRNA [2]; [15]) [%]
1 | 407935 (antisense eA*eT*eG*e[5mC]*eA*dT*dG*dG*dT*dG*dA*dT*dG*d[5mC]*dT*eT*e[5mC]*eT*eG*eA) [compound 407935] | 94 | 72 | 79 | 37 | 63 | 47 | 79 | 67 | 84 | 73 | 90 | 80 | 90 | 87 | 91
2 | 407939 (antisense eT*eG*e[5mC]*eA*eG*d[5mC]*d[5mC]*d[5mC]*dG*dG*d[5mC]*dA*d[5mC]*d[5mC]*d[5mC]*eA*eG*e[5mC]*eG*eA) [compound 407939] | 93 | 76 | – | 18 | 35 | 28 | 60 | 42 | 60 | 56 | 73 | 68 | 81 | 82 | 83
